Assay results taken from patent publication US9006440B2, “Furopyridine derivatives” (Merck Patent GmbH, priority 2010, dated 2015).

Tests used:
Assay type in all cases: biochemical
Syk = target: T1, Syk (Homo sapiens, UniProt P43405); assay: Syk enzyme assay (SYK flash plate assay / Caliper mobility shift)
T1 construct: purchased BPS Bioscience, CA, USA
Summary of the method: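 Flashplate format: 2.5 nM SYK, 400 nM biotinylated peptide, 10 μM ATP with 33P-ATP, pH 7.5, 1 h at 30 °C; radioactivity read, staurosporine background. Caliper format: 90 min at 25 °C, mobility-shift read of substrate-to-product conversion; IC50 from dose-response curve.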

KDR = target: T2, KDR (Homo sapiens, UniProt P35968); assay: KDR enzymatic assay (Caliper LifeSciences technology)
T2 construct: purchased BPS Bioscience, CA, USA
T2 sequence (P35968 20-1356): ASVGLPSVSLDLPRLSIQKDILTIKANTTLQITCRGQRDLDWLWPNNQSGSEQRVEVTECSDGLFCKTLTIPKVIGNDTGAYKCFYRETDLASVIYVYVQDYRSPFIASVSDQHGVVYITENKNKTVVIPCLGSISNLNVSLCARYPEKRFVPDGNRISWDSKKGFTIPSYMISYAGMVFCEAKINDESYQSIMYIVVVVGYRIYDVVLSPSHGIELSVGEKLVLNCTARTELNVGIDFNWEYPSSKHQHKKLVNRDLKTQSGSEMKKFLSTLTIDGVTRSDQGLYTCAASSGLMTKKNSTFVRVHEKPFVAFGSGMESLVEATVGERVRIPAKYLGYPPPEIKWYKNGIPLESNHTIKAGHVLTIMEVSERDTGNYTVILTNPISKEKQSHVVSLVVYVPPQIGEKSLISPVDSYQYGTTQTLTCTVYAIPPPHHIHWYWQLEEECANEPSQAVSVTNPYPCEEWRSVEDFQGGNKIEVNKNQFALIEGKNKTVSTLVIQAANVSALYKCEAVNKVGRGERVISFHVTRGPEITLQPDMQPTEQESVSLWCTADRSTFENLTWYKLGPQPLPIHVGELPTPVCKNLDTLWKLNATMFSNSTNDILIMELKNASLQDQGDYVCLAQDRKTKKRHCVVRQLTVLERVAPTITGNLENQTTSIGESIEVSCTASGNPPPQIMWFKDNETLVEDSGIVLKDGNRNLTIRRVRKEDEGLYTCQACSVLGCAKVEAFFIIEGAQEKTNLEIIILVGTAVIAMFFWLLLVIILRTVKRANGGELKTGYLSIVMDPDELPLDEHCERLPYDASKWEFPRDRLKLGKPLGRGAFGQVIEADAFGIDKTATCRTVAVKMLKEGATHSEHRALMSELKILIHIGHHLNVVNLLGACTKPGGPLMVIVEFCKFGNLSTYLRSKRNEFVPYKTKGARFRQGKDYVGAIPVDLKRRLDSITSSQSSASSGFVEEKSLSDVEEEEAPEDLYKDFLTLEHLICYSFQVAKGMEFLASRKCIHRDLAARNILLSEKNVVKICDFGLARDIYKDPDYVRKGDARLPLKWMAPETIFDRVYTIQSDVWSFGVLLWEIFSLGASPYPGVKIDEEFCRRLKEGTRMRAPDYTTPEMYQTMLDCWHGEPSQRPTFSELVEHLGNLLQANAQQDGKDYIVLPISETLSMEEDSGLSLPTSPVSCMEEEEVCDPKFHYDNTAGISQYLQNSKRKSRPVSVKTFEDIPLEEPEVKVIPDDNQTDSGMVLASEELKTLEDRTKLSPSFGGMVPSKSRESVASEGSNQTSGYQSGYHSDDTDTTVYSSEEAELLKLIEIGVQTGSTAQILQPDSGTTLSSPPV
Experimental: (§1) The assays described here are performed on the Caliper Life Sciences LC3000 system This technology provides data on enzyme activity via measurement of the relative amounts of phosphorylated or unphosphorylated fluorescently labelled substrate peptide at the end of an enzymatic reaction. These different states of peptide are resolved by applying a potential difference across the sample. The presence of the charged phosphate group on the product (as opposed to the substrate) causes a different peptide mobility between the two peptides. This is visualized by excitation of the fluorescent label on the substrate and product peptides and represented as peaks within the analysis software.
(§2) In order to measure inhibitor activity of kinase inhibitors on this technology, a TTP Mosquito liquid handling instrument is used to place 0.25 ul of the appropriate concentration of inhibitor in 100% DMSO (for a dose response curve calculation) into each well of a 384-well plate. To this reaction components are added to a final volume of 25 ul. The table below indicates the sequences and concentrations for the assays described in this report. Standard components are 1 mM DTT (Sigma, D0632), 1 mM MgCl2 (Sigma, M1028), 100 mM HEPES pH 7.5 (Calbiochem, 391338), 0.015% Brij-35 (Sigma, B4184).
(§3) The reaction is incubated for 90 min at 25 C, and then stopped by the addition of 70 ul of Stop buffer (100 mM HEPES pH 7.5, 0.015% Brij-35, 10 mM EDTA (Sigma, E7889)).
(§4) The plate is read on a Caliper LC 3000 in an Off-Chip mobility shift assay format, on a 12-sipper chip. Unphosphorylated substrate and phosphorylated product peptide resolve as separate peaks allowing direct measurement of percentage of conversion of substrate to product. The percent conversion can be plotted against concentration of inhibitor to produce a sigmoidal dose response curve, from which an IC50 can be calculated using GeneData Condoseo or a similar product.

Zap70 = target: T3, Zap70 (Homo sapiens, UniProt P43403); assay: ZAP-70 enzymatic assay (Caliper LifeSciences technology)
T3 construct: purchased BPS Bioscience, CA, USA
T3 sequence (P43403 1-619): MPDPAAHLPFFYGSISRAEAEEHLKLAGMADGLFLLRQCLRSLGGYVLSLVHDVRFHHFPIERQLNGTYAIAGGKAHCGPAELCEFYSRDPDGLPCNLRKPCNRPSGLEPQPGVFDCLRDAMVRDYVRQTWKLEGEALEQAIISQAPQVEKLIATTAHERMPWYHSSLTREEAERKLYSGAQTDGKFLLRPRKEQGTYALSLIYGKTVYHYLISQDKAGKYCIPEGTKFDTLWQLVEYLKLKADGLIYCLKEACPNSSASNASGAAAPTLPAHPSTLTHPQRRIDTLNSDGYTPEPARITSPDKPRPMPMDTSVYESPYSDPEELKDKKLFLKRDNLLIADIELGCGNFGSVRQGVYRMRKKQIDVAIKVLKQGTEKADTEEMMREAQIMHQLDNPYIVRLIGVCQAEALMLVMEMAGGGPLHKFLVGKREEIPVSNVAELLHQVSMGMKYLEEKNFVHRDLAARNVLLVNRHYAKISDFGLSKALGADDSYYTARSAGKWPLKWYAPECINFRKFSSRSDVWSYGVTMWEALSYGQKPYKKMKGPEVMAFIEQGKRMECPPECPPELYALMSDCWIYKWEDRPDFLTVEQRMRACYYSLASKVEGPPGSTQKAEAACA
Experimental: as §1, §2, §3, §4

BTK = target: T4, BTK (Homo sapiens, UniProt Q06187); assay: BTK enzymatic assay (Caliper LifeSciences technology)
T4 construct: purchased Carna Bioscience, Kobe, Japan
T4 sequence (Q06187 whole entry): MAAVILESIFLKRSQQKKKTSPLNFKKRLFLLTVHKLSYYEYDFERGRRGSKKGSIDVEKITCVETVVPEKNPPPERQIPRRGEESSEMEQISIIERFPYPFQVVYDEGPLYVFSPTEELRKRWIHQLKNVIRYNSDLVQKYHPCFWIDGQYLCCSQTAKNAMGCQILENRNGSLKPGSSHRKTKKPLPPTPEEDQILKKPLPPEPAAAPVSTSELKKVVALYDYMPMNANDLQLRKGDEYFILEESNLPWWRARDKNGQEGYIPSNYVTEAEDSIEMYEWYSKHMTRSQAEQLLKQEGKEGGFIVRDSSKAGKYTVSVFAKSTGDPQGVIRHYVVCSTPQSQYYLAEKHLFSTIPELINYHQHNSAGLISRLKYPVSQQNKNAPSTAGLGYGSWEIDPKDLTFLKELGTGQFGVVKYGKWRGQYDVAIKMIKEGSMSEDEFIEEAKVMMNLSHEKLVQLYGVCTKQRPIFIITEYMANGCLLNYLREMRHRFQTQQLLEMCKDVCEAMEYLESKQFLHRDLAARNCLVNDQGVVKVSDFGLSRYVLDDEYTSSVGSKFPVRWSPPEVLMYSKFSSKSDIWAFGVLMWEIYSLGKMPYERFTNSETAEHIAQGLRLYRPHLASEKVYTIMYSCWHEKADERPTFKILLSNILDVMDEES
Experimental: as §1, §2, §3, §4

SRC = target: T5, SRC (Homo sapiens, UniProt P12931); assay: Src enzymatic assay (Caliper LifeSciences technology)
T5 construct: purchased Carna Bioscience, Kobe, Japan
T5 sequence (P12931 whole entry): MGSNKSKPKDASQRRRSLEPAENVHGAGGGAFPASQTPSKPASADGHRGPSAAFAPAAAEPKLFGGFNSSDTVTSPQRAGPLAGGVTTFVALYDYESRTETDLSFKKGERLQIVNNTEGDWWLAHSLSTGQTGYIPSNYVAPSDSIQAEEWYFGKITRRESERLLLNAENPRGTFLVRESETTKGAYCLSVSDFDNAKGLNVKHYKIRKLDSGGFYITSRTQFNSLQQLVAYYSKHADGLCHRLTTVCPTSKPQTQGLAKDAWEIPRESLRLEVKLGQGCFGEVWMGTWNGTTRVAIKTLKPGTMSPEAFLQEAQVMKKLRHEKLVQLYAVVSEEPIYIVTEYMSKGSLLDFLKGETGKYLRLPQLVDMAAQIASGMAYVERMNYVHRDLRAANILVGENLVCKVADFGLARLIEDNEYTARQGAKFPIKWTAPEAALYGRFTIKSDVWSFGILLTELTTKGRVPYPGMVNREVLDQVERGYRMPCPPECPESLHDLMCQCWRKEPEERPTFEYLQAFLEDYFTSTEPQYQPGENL
Experimental: as §1, §2, §3, §4

Row | Structure (SMILES) | IC50 (Syk) [µM] | IC50 (KDR) [µM] | IC50 (Zap70) [µM] | IC50 (BTK) [µM] | IC50 (SRC) [µM]
1 | COc1cc(-c2cc3nccc(-c4cccc5[nH]ncc45)c3o2)cc(OC)c1OC [Compound A17, 7-(1H-Indazol-4-yl)-2-(3,4,5-trimethoxy-phenyl)-furo[3,2-b]pyridine] | < 0.3 | 0.3 to 3 | 3 to 50 | – | –
2 | CNC(=O)c1ccccc1Nc1ccnc2cc(-c3cc(OC)c(OC)c(OC)c3)oc12 [Compound B8, N-Methyl-2-[2-(3,4,5-trimethoxy-phenyl)-furo[3,2-b]pyridin-7-ylamino]-benzamide] | 0.3 to 3 | – | – | 0.3 to 3 | 0.3 to 3
3 | OCc1ccc(-c2cc3nccc(-c4ccc(CO)cc4)c3o2)cc1 [Compound B44, {4-[2-(4-Hydroxymethyl-phenyl)-furo[3,2-b]pyridin-7-yl]-phenyl}-methanol] | 0.3 to 3 | < 0.3 | – | 3 to 50 | –
4 | Cc1c(Nc2ccnc3cc(-c4ccc5c(c4)OCCO5)oc23)ccc2[nH]ccc12 [Compound B60, [2-(2,3-Dihydro-benzo[1,4]dioxin-6-yl)-furo[3,2-b]pyridin-7-yl]-(4-methyl-1H-indol-5-yl)-amine] | 0.3 to 3 | 0.3 to 3 | – | – | < 0.3
5 | Cc1noc(C)c1-c1cc2nccc(Nc3ccc4[nH]ccc4c3C)c2o1 [Compound B63, [2-(3,5-Dimethyl-isoxazol-4-yl)-furo[3,2-b]pyridin-7-yl]-(4-methyl-1H-indol-5-yl)-amine] | 0.3 to 3 | < 0.3 | – | – | < 0.3
6 | COc1cc(-c2cc3nccc(-c4ccc5c(c4)OCO5)c3o2)cc(OC)c1OC [Compound B76, 7-(Benzo[d][1,3]dioxol-5-yl)-2-(3,4,5-trimethoxyphenyl)furo[3,2-b]pyridine] | < 0.3 | – | 0.3 to 3 | – | –
7 | Nc1cccc(-c2cc3nccc(Oc4ccc(Oc5ccccc5)cc4)c3o2)c1 [Compound B79, 3-[7-(4-Phenoxyphenoxy)furo[3,2-b]pyridin-2-yl]aniline] | 3 to 50 | – | – | 0.3 to 3 | –
8 | COc1ccc(-c2cc3nccc(-c4ccccc4)c3o2)cc1NC(=O)[C@@H]1C[C@@H](O)CN1 [Compound C40] | 0.3 to 3 | 0.3 to 3 | – | – | 3 to 50
9 | COc1cc(-c2cc3nccc(-c4cnn(Cc5ccccc5)c4)c3o2)cc(OC)c1OC [Compound C58] | < 0.3 | – | < 0.3 | – | –
10 | COc1cc(-c2cc3nccc(-c4ccnn4C)c3o2)cc(OC)c1OC [Compound C64] | 0.3 to 3 | – | 3 to 50 | – | –
11 | COc1cc(-c2cc3nccc(-c4cnc5c(c4)CCCO5)c3o2)cc(OC)c1OC [Compound C113] | < 0.3 | 0.3 to 3 | – | – | 0.3 to 3
12 | Cn1cc(-c2ccnc3cc(-c4ccc5nc[nH]c5c4)oc23)cn1 [Compound C123] | < 0.3 | 0.3 to 3 | – | 3 to 50 | –
13 | COc1cc(-c2cc3nccc(-c4c[nH]nc4C)c3o2)cc(OC)c1OC [Compound C127] | < 0.3 | 0.3 to 3 | – | – | 0.3 to 3
14 | COc1ccc(O)cc1-c1ccnc2cc(-c3cc(OC)c(OC)c(OC)c3)oc12 [Compound C136] | < 0.3 | 0.3 to 3 | – | – | 0.3 to 3
15 | COc1cc(-c2cc3nccc(-c4cc(OC(C)C)cc(C(=O)O)c4)c3o2)cc(OC)c1OC [Compound C155] | < 0.3 | 0.3 to 3 | – | – | 0.3 to 3
16 | COc1cc(-c2cc3nccc(-c4cc(OC(F)(F)F)cc(C(=O)O)c4)c3o2)cc(OC)c1OC [Compound C163] | < 0.3 | 0.3 to 3 | – | – | 0.3 to 3
17 | COc1ccc(OC)c(-c2cc3nccc(-c4cccc(C(=O)N[C@@H]5CCCC[C@@H]5N)c4)c3o2)c1 [Compound C178] | < 0.3 | 0.3 to 3 | – | – | < 0.3
18 | C=CC(=O)NCc1cccc(-c2cc3nccc(Oc4ccc(Oc5ccccc5)cc4)c3o2)c1 [Compound D4, N-{3-[7-(4-Phenoxy-phenoxy)-furo[3,2-b]pyridin-2-yl]-benzyl}-acrylamide] | – | – | – | < 0.3 | –
19 | CCC(=O)Nc1cccc(-c2cc3nccc(Oc4ccccc4)c3o2)c1 [Compound D8, N-[3-(7-Phenoxy-furo[3,2-b]pyridin-2-yl)-phenyl]-propionamide] | – | – | – | 3 to 50 | –
20 | C=CC(=O)Nc1cccc(-c2cc3nccc(Oc4cccc(Cl)c4)c3o2)c1 [Compound D9, N-{3-[7-(3-Chloro-phenoxy)-furo[3,2-b]pyridin-2-yl]-phenyl}-acrylamide] | – | – | – | 3 to 50 | –
21 | C=CC(=O)Nc1cccc(-c2cc3nccc(Oc4ccc5ncccc5c4)c3o2)c1 [Compound D10, N-{3-[7-(Quinolin-6-yloxy)-furo[3,2-b]pyridin-2-yl]-phenyl}-acrylamide] | – | – | – | 3 to 50 | –

More lines, now with the values ahead:

Row | IC50 (Syk) [µM] | IC50 (KDR) [µM] | IC50 (Zap70) [µM] | IC50 (BTK) [µM] | IC50 (SRC) [µM] | Structure (SMILES)
22 | – | – | – | 0.3 to 3 | – | C=CC(=O)Nc1cccc(-c2cc3nccc(Oc4ccc(Cl)cc4)c3o2)c1 [Compound D11, N-{3-[7-(4-Chloro-phenoxy)-furo[3,2-b]pyridin-2-yl]-phenyl}-acrylamide]
23 | – | – | – | 3 to 50 | – | CCC(=O)Nc1cccc(-c2cc3nccc(-c4ccccc4)c3o2)c1 [Compound D14, N-[3-(7-Phenyl-furo[3,2-b]pyridin-2-yl)-phenyl]-propionamide]
24 | – | – | – | 0.3 to 3 | – | C=CC(=O)NCc1cccc(-c2cc3nccc(-c4ccccc4)c3o2)c1 [Compound D15, N-[3-(7-Phenyl-furo[3,2-b]pyridin-2-yl)-benzyl]-acrylamide]
25 | – | – | – | 0.3 to 3 | – | O=C(CCl)NCc1cccc(-c2cc3nccc(-c4ccccc4)c3o2)c1 [Compound D16, 2-Chloro-N-[3-(7-phenyl-furo[3,2-b]pyridin-2-yl)-benzyl]-acetamide]
26 | – | – | – | 0.3 to 3 | – | C=CC(=O)Nc1cccc(Oc2ccnc3cc(-c4ccccc4)oc23)c1 [Compound D19, N-[3-(2-Phenyl-furo[3,2-b]pyridin-7-yloxy)-phenyl]-acrylamide]
27 | – | – | – | < 0.3 | – | O=C(CCl)Nc1cccc(Oc2ccnc3cc(-c4ccccc4)oc23)c1 [Compound D20, 2-Chloro-N-[3-(2-phenyl-furo[3,2-b]pyridin-7-yloxy)-phenyl]-acetamide]
28 | – | – | – | 3 to 50 | – | CCC(=O)Nc1cccc(Oc2ccnc3cc(-c4ccccc4)oc23)c1 [Compound D21, N-[3-(2-Phenyl-furo[3,2-b]pyridin-7-yloxy)-phenyl]-propionamide]
29 | – | – | – | 0.3 to 3 | – | C=CC(=O)Nc1ccc(Oc2ccnc3cc(-c4ccccc4)oc23)cc1 [Compound D22, N-[4-(2-Phenyl-furo[3,2-b]pyridin-7-yloxy)-phenyl]-acrylamide]
30 | – | – | – | < 0.3 | – | O=C(CCl)Nc1ccc(Oc2ccnc3cc(-c4ccccc4)oc23)cc1 [Compound D23, 2-Chloro-N-[4-(2-phenyl-furo[3,2-b]pyridin-7-yloxy)-phenyl]-acetamide]
31 | – | – | – | 3 to 50 | – | CCC(=O)Nc1ccc(Oc2ccnc3cc(-c4ccccc4)oc23)cc1 [Compound D24, N-[4-(2-Phenyl-furo[3,2-b]pyridin-7-yloxy)-phenyl]-propionamide]
32 | – | – | – | 0.3 to 3 | – | C=CC(=O)NCc1ccc(-c2ccnc3cc(-c4ccccc4)oc23)cc1 [Compound D25, N-[4-(2-Phenyl-furo[3,2-b]pyridin-7-yl)-benzyl]-acrylamide]
33 | – | – | – | < 0.3 | – | Cc1cc2nccc(Oc3cccc(NC(=O)CCl)c3)c2o1 [Compound D27, 2-Chloro-N-[3-(2-methyl-furo[3,2-b]pyridin-7-yloxy)-phenyl]-acetamide]
34 | – | – | – | 3 to 50 | – | CCC(=O)Nc1cccc(Oc2ccnc3cc(C)oc23)c1 [Compound D28, N-[3-(2-Methyl-furo[3,2-b]pyridin-7-yloxy)-phenyl]-propionamide]
35 | – | – | – | 3 to 50 | – | CCC(=O)Nc1cccc(-c2ccnc3cc(C)oc23)c1 [Compound D29, N-[3-(2-Methyl-furo[3,2-b]pyridin-7-yl)-phenyl]-propionamide]
